The values that follow come from patent US20250222063A1, “TOPICAL FORMULATION FOR USE IN THE TREATMENT OR PREVENTION OF DRY ITCHY SKIN” (MC2 THERAPEUTICS LTD, priority 2022, published 2025).

The nature of data set [1]: Solubility (stated in words). Type of data set: physicochemical. To be noted: summary in words.
The subject of data set [2] is bovine serum albumin (BSA). The experiment in a line: In vitro protein carbamylation assay (14C-potassium cyanate, scintillation counting). In kind it is biochemical. To be noted: for Degree of carbamylation (% relative to HBSS control): 10 mM nucleophile, 75 μM BSA, 25 μM 14C-Potassium Cyanate, 37° C., 72 hours, n=3; for scavenger potential: summary in words. The procedure:
The tests were performed as described below. 200 μL of a 0.5% BSA solution, 200 μL of test solution and 100 μL of a 5 μCi/mL 14 C-Potassium Cyanate solution was mixed in an Eppendorf tube (corresponding to a final concentration of 75 μM BSA, 25 μM 14 C-Potassium Cyanate, and 10 mM nucleophile). Samples run in triplicates (n=3). The Eppendorf tubes were incubated at 37° C. for 72 hours.
After incubation a volume of 100 μL of each sample was transferred to a new Eppendorf tube containing 100 μL of a 10% trichloroacetic acid (TCA) and kept at 4° C. overnight (for precipitation of BSA). Subsequently, the precipitated BSA was separated from the buffer by centrifugation (10000 rpm, 30 seconds). The supernatant was removed and the BSA pellet 10 was resuspended in 200 μL of a 10% solution of cold TCA (4° C.). The pellet was recovered by centrifugation (10000 rpm, 30 seconds) and supernatant was discarded. The BSA pellet was resuspended in 100 μL purified water (MilliQ) and transferred to a scintillation vial. The Eppendorf tube (previously containing the BSA pellet) was rinsed with an additional 100 μL purified water which al was transferred to the relevant scintillation vial.

Data set [3] in a line: ACD/Labs calculated Log P. To be noted: summary in words, judged from Log P. From the text: It is well known in the art that compounds for a given molecular weight with more extreme Log P values are less likely to permeate the skin barrier well. Whether that be extremely hydrophilic (Log P<−2) or extremely hydrophobic (Log P>2) (16).). All of the dipeptides have a molecular weight below 400 therefore a good approximation of their relative permeation potential is their Log P. According to the ACD/Labs calculated Log P values Ala-Gln is the one of the most hydrophilc in nature with a Log P of −4.4.

A short description of data set [4]: Aqueous stability in HBSS buffer at 40° C. (HPLC-UV). Type of data set: physicochemical. To be noted: for 1 month aqueous stability at 40° C. / 3 month aqueous stability at 40° C.: 3% wt/wt or 0.4% wt/wt in HBSS buffer, glass vials, HPLC-UV, in % (unit assumed); for aqueous stability: summary in words. The procedure: An important aspect of formulating a stable topical product. Data in Table 4 below gives 1 month and 3 month stability data at 40° C. Compounds were dissolved at 3% wt/wt or 0.4% wt/wt (if 3% was not possible) in HBSS buffer and stored in glass vials at temperature. Samples were subsequently analyzed by HPLC-UV.

A short description of data set [5]: Skin homogenate study (degradation half-life, LC-MS/MS). Type of data set: in vitro ADME, human. The following applies: for Half life in skin homogenate: pooled human skin homogenate, 37° C., compound working solution 40 μg/mL mixed with equal volume of homogenate; for degradation: summary in words, given as in vivo. The procedure: To identify which of the dipeptides was readily subject to degradation by proteases and other cell processes in the skin, a number of compounds where tested in a skin homogenate study as described below and the results are listed in table 3.
Dermatomed human skin from multiple skin donors was pooled, homogenized, and adjusted to a tissue concentration of 100 mg tissue per mL of homogenate. The homogenate was used immediately following preparation without any additional freeze/thaw cycles. Working solutions of each compound were prepared in Dulbecco's phosphate-buffered saline (DPBS) at 40 μg/mL. All solutions were pre-heated to 37° C. Equal volumes of skin homogenate and compound working solution were combined, mixed, held at 37° C., and sampled at 0, 15, 30, 60, 120, and 240 minutes. Samples were quenched with acidic acetonitrile, centrifuged, and prepared for LC-MS/MS analysis. Peak areas of each compound at each time-point were determined by LC-MS/MS.
The individual half-life of each dipeptide was determined.
The nature of the experiment should be considered indicative of the relative stability of each of the compounds rather than an absolute correlation to what would happen in vivo. The process of homogenizing the skin is likely to greatly accelerate the degradation. However, it is clear that there is substantial variation in the relative rates for each dipeptide. (See Table 3)

Each structure is given as a SMILES string. Residues, ends and D or L forms follow the SMILES beside them. Some results are limits rather than exact numbers.

On to `C[C@H](N)C(=O)N[C@@H](CCC(N)=O)C(=O)O` [Ala-Gln] (H-Ala-Gln-OH), for which, in data set [1], the solubility entry was “good”. In data set [2], the “Degree of carbamylation (% relative to HBSS control)” value is 34.8 % relative to HBSS control and the scavenger potential entry is “good”. Besides, the transdermal penetration potential result in data set [3] was “poor”. Moreover, in data set [4], the “1 month aqueous stability at 40° C.” value was 100.6, the “3 month aqueous stability at 40° C.” value turned out to be 100.1 and the aqueous stability entry is recorded as “good”. Also, in data set [5], the “Half life in skin homogenate” value was <5 min and the degradation result is listed as “rapid”.
Take `NCC(=O)N[C@@H](CCCN=C(N)N)C(=O)O` [Gly-Arg] (H-Gly-Arg-OH): the solubility result in data set [1] is listed as “good”. Also, the scavenger potential entry in data set [2] is listed as “good”. The transdermal penetration potential result in data set [3] is listed as “poor”. Further, the aqueous stability entry in data set [4] is given as “good”. Further, in data set [5], the “Half life in skin homogenate” value is 45 min and the degradation result is given as “rapid”.
On to `C[C@H](N)C(=O)N[C@@H](CCC(=O)O)C(=O)O` [Ala-Glu] (H-Ala-Glu-OH), for which, in data set [1], the solubility result was “good”. Further, in data set [2], the “Degree of carbamylation (% relative to HBSS control)” value is 20.4 % relative to HBSS control and the scavenger potential entry is “good”. For the same compound, the transdermal penetration potential result in data set [3] was “poor”. Moreover, in data set [4], the “1 month aqueous stability at 40° C.” value worked out at 99.1, the “3 month aqueous stability at 40° C.” value was found to be 99.0 and the aqueous stability entry was “good”. Also, in data set [5], the “Half life in skin homogenate” value worked out at 39 min and the degradation entry is given as “rapid”.
As to `O=C(O)[C@H](CO)NC(=O)[C@@H]1CCCN1` [Pro-Ser] (H-Pro-Ser-OH), the “Degree of carbamylation (% relative to HBSS control)” value in data set [2] is on record as 41.9 % relative to HBSS control. In data set [4], the “1 month aqueous stability at 40° C.” value came out at 78.1 and the “3 month aqueous stability at 40° C.” value came out at 49.0. In data set [5], the “Half life in skin homogenate” value is 284 min.
